The results in this text go back to patent publication US20250228239A1, “MOLECULES HAVING PESTICIDAL UTILITY, AND INTERMEDIATES, COMPOSITIONS, AND PROCESSES, RELATED THERETO” (priority 2024, published 2025).

Read-outs that look alike come from different tables or passages of the source.

Holding throughout (assay type): in vivo
In experiment [1] the test system is Beet Armyworm (Spodoptera exigua, LAPHEG). Description: Bioassays on Beet Armyworm (BAW), 128-well diet tray assay. To be noted: Spodoptera exigua. In short, it runs like this: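 Mortality of second-instar larvae (1–5/well) on artificial diet treated with 50 μg/cm^2 compound, read after 5–7 days at 25° C.; values are means of eight wells.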
Experiment [2] has as its system Yellow Fever Mosquito (Aedes aegypti, AEDSAE). To be noted: for YFM rating: Table ABC / ABC-DP rating. On the procedure: Certain molecules disclosed in this document were tested against YFM using procedures described in the following paragraph. In the reporting of the results, the “GPA & YFM Rating Table” was used (See Table Section).
Master plates containing 400 μg of a molecule dissolved in 100 μL of dimethyl sulfoxide (DMSO) (equivalent to a 4000 ppm solution) are used. A master plate of assembled molecules contains 15 μL per well. To this plate, 135 μL of a 90:10 water/acetone mixture is added to each well. A robot (Biomek® NXP Laboratory Automation Workstation) is programmed to dispense 15 μL aspirations from the master plate into an empty 96-well shallow plate (“daughter” plate). There are 6 reps (“daughter” plates) created per master. The created “daughter” plates are then immediately infested with YFM larvae.
The day before plates are to be treated, mosquito eggs are placed in Millipore water containing liver powder to begin hatching (4 g into 400 mL). After the “daughter” plates are created using the robot, they are infested with 220 μL of the liver powder/larval mosquito mixture (about 1 day-old larvae). After plates are infested with mosquito larvae, a non-evaporative lid is used to cover the plate to reduce drying. Plates are held at room temperature for 3 days prior to grading. After 3 days, each well is observed and scored based on mortality. The results are indicated in the table entitled “Table ABC: Biological Results” (See Table Section).

The test system of experiment [3] is Cabbage Looper (Trichoplusia ni, TRIPNI). Kind of experiment: Bioassays on Cabbage Looper (CL), 128-well diet tray assay. The settings on record: Trichoplusia ni. A digest of the protocol: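 Activity is mean percent mortality over eight wells of second-instar larvae exposed to diet treated at 50 μg/cm^2 for 5–7 days at 25° C.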
Where [4] appears, read: Beet Armyworm, Table ABC / ABC-DP rating, read-out: BAW rating.
[5] abbreviates: Cabbage Looper, Table ABC / ABC-DP rating, read-out: CL rating.
Where [6] appears, read: Table ABC: Biological Results, species BAW, read-out: BAW.
[7] abbreviates: Table ABC: Biological Results, species YFM.
[8] abbreviates: Table ABC: Biological Results, species CL, read-out: CL.
The mark [9] stands for this setting: Beet Armyworm, rating class, read-out: BAW.
Where [10] appears, read: Yellow Fever Mosquito, rating class.
Where [11] appears, read: Cabbage Looper, rating class, read-out: CL.

As to `CC(F)(F)CCC(=O)Nc1c(F)ccc(NC(=O)c2cc(NC(=O)[C@H]3[C@H](c4ccc(F)c(C(F)(F)F)c4)C3(Cl)Cl)ccc2Cl)c1F` [F1843, 2-Chloro-5-((1R,3R)-2,2-dichloro-3-(4-fluoro-3-(trifluoromethyl)phenyl)cyclopropane-1-carboxamido)-N-(3-(4,4-difluoropentanamido)-2,4-difluorophenyl)benzamide], the pest or weed control at 50 µg/cm2 in experiment [1] (setting [4]) and in experiment [3] (setting [5]) was 50 to 100% each time. Also, in experiment [2] (Yellow Fever Mosquito), the YFM rating entry is listed as “A (80–100)”.

In the case of `O=C(CCC(F)(F)F)Nc1c(F)ccc(NC(=O)c2cc(NC(=O)[C@H]3[C@H](c4ccc(F)c(Cl)c4)C3(Cl)Cl)ccc2Cl)c1F` [F1848, 2-Chloro-5-((1R,3R)-2,2-dichloro-3-(3-chloro-4-fluorophenyl)cyclopropane-1-carboxamido)-N-(2,4-difluoro-3-(4,4,4-trifluorobutanamido)phenyl)benzamide], the pest or weed control at 50 µg/cm2 in experiment [1] (setting [4]) and in experiment [3] (setting [5]) was 50 to 100% throughout. For the same molecule, in experiment [2] (Yellow Fever Mosquito), the YFM rating result is recorded as “A (80–100)”.

On to `O=C(Nc1ccc(F)cc1)c1cc(NC(=O)[C@H]2[C@H](c3cc(Cl)cc(Cl)c3)C2(F)F)ccc1Cl` (relative stereo) [F1057, trans-2-Chloro-5-(3-(3,5-dichlorophenyl)-2,2-difluorocyclopropane-1-carboxamido)-N-(4-fluorophenyl)benzamide], for which the pest or weed control at 50 µg/cm2 in experiment [1] (setting [6]) and in experiment [3] (setting [8]) was 50 to 100% throughout. The YFM result in experiment [2] (setting [7]) was “A (80–100)”.

Consider `COc1c(F)cc(NC(=O)[C@H]2[C@H](c3ccc(F)c(Cl)c3)C2(Cl)Cl)cc1C(=O)Nc1ccc(F)cc1F` (relative stereo) [F1219, trans-5-(2,2-Dichloro-3-(3-chloro-4-fluorophenyl)cyclopropane-1-carboxamido)-N-(2,4-difluorophenyl)-3-fluoro-2-methoxybenzamide], for which the pest or weed control at 50 µg/cm2 in experiment [1] (setting [6]) and in experiment [3] (setting [8]) was 50 to 100% throughout. In addition, the YFM result in experiment [2] (setting [7]) is on record as “A (80–100)”.

`C#CCC(=O)N(CC)c1c(F)ccc(NC(=O)c2cc(NC(=O)[C@H]3[C@H](c4ccc(F)c(C(F)(F)F)c4)C3(Cl)Cl)ccc2Cl)c1F` [F1763]: the pest or weed control at 50 µg/cm2 in experiment [1] (setting [9]) and in experiment [3] (setting [11]) was 50 to 100% in each case. Further, the YFM result in experiment [2] (setting [10]) was “A (80–100)”.

Consider `C=Cc1cc(F)ccc1NC(=O)c1cc(NC(=O)[C@H]2[C@H](c3cc(Cl)cc(Cl)c3)C2(Cl)Cl)ccc1Cl` (relative stereo) [F1312, trans-2-Chloro-5-(2,2-dichloro-3-(3,5-dichlorophenyl)cyclopropane-1-carboxamido)-N-(4-fluoro-2-vinylphenyl)benzamide], for which the pest or weed control at 50 µg/cm2 in experiment [1] (setting [6]) and in experiment [3] (setting [8]) was 50 to 100% each time. For the same molecule, in experiment [2] (setting [7]), the YFM result was “A (80–100)”.

Turning to `O=C(Nc1ccc(F)cc1F)c1cc(NC(=O)[C@H]2[C@H](c3cc(F)c(Cl)c(C(F)(F)F)c3)C2(Cl)Cl)ccc1Cl` (relative stereo) [F1163, trans-2-Chloro-5-(2,2-dichloro-3-(4-chloro-3-fluoro-5-(trifluoromethyl)phenyl)cyclopropane-1-carboxamido)-N-(2,4-difluorophenyl)benzamide], the pest or weed control at 50 µg/cm2 in experiment [1] (setting [6]) and in experiment [3] (setting [8]) was 50 to 100% throughout. For the same molecule, the YFM result in experiment [2] (setting [7]) is “A (80–100)”.

For `N#CC1(C(=O)NNC(=O)c2cc(NC(=O)[C@H]3[C@H](c4cc(Cl)cc(Cl)c4)C3(Cl)Cl)ccc2Cl)CC1` (relative stereo) [F2518, trans-2,2-Dichloro-N-(4-chloro-3-(2-(1-cyanocyclopropane-1-carbonyl)hydrazine-1-carbonyl)phenyl)-3-(3,5-dichlorophenyl)cyclopropane-1-carboxamide], the pest or weed control at 50 µg/cm2 in experiment [1] (setting [4]) and in experiment [3] (setting [5]) was 50 to 100% throughout. Besides, the YFM rating result in experiment [2] (Yellow Fever Mosquito) is given as “A (80–100)”.

On to `CC(=O)Nc1ccc(F)c(NC(=O)c2cc(NC(=O)[C@H]3[C@H](c4ccc(F)c(C(F)(F)F)c4)C3(Cl)Cl)ccc2Cl)c1F` [F1454, N-(3-Acetamido-2,6-difluorophenyl)-2-chloro-5-((1R,3R)-2,2-dichloro-3-(4-fluoro-3-(trifluoromethyl)phenyl)cyclopropane-1-carboxamido)benzamide], for which the pest or weed control at 50 µg/cm2 in experiment [1] (setting [9]) and in experiment [3] (setting [11]) was 50 to 100% throughout. Besides, the YFM result in experiment [2] (setting [10]) is recorded as “A (80–100)”.

`O=C(Nc1ccc(F)cc1F)c1cc(NC(=O)[C@H]2[C@H](c3cccc(I)c3)C2(Cl)Cl)ccc1Cl` (relative stereo) [F1088, trans-2-Chloro-5-(2,2-dichloro-3-(3-iodophenyl)cyclopropane-1-carboxamido)-N-(2,4-difluorophenyl)benzamide]: the pest or weed control at 50 µg/cm2 in experiment [1] (setting [6]) and in experiment [3] (setting [8]) was 50 to 100% throughout. Moreover, in experiment [2] (setting [7]), the YFM entry is “A (80–100)”.

Take `O=C(NNc1ccc(Cl)cn1)c1cc(NC(=O)[C@H]2[C@H](c3cc(Cl)cc(Cl)c3)C2(Cl)Cl)ccc1Cl` (relative stereo) [F2504, trans-2,2-Dichloro-N-(4-chloro-3-(2-(5-chloropyridin-2-yl)hydrazine-1-carbonyl)phenyl)-3-(3,5-dichlorophenyl)cyclopropane-1-carboxamide]: the pest or weed control at 50 µg/cm2 in experiment [1] (setting [4]) and in experiment [3] (setting [5]) was 50 to 100% in each case. Further, the YFM rating entry in experiment [2] (Yellow Fever Mosquito) was “A (80–100)”.

Turning to `Cc1c(Cl)cc(NC(=O)[C@H]2[C@H](c3ccc(F)c(Cl)c3)C2(Cl)Cl)cc1C(=O)NCC(F)(F)C(F)(F)F` (relative stereo) [F2043, trans-3-Chloro-5-(2,2-dichloro-3-(3-chloro-4-fluorophenyl)cyclopropane-1-carboxamido)-2-methyl-N-(2,2,3,3,3-pentafluoropropyl)benzamide], the pest or weed control at 50 µg/cm2 in experiment [1] (setting [4]) and in experiment [3] (setting [5]) was 50 to 100% each time. Moreover, the YFM rating result in experiment [2] (Yellow Fever Mosquito) is recorded as “A (80–100)”.

For `Cc1c(F)cc(NC(=O)[C@H]2[C@H](c3ccc(F)c(Cl)c3)C2(Cl)Cl)cc1C(=O)NCC(F)(F)C(F)(F)F` (relative stereo) [F2064, trans-5-(2,2-Dichloro-3-(3-chloro-4-fluorophenyl)cyclopropane-1-carboxamido)-3-fluoro-2-methyl-N-(2,2,3,3,3-pentafluoropropyl)benzamide], the pest or weed control at 50 µg/cm2 in experiment [1] (setting [4]) and in experiment [3] (setting [5]) was 50 to 100% each time. For the same molecule, the YFM rating entry in experiment [2] (Yellow Fever Mosquito) is listed as “A (80–100)”.

On to `CCN(C(=O)OC(C)(C)C)c1c(F)ccc(NC(=O)c2cc(NC(=O)[C@H]3[C@H](c4ccc(F)c(C(F)(F)F)c4)C3(Cl)Cl)ccc2Cl)c1F` [F1761, tert-Butyl (3-(2-chloro-5-((1R,3R)-2,2-dichloro-3-(4-fluoro-3-(trifluoromethyl)phenyl)cyclopropane-1-carboxamido)benzamido)-2,6-difluorophenyl)(ethyl)carbamate], for which the pest or weed control at 50 µg/cm2 in experiment [1] (setting [9]) and in experiment [3] (setting [11]) was 50 to 100% each time. In addition, the YFM entry in experiment [2] (setting [10]) was “A (80–100)”.

`CN(C(=O)C(F)F)c1c(F)ccc(NC(=O)c2cc(NC(=O)[C@H]3[C@H](c4cc(Cl)c(Cl)c(Cl)c4)C3(Cl)Cl)ccc2Cl)c1F` [F1461, 2-Chloro-5-((1R,3R)-2,2-dichloro-3-(3,4,5-trichlorophenyl)cyclopropane-1-carboxamido)-N-(3-(2,2-difluoro-N-methylacetamido)-2,4-difluorophenyl)benzamide]: the pest or weed control at 50 µg/cm2 in experiment [1] (setting [9]) and in experiment [3] (setting [11]) was 50 to 100% each time. Further, in experiment [2] (setting [10]), the YFM entry is given as “A (80–100)”.
